Laboratory results reported in PubChem BioAssay (NCI).
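Tested at 5 concentrations; 48 h exposure; 96-well plates; endpoints linearly interpolated, else capped at highest concentration. TGI is the concentration that stops growth completely.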

How the values were obtained:
Assay in all cases: inhibition of tumour cell growth, NCI panel, 48 h
786-0 renal = system: 786-0 renal
A498 renal = system: A498 renal
A549 NSCLC = system: A549 NSCLC
ACHN renal = system: ACHN renal
BT-549 breast = system: BT-549 breast
CAKI-1 renal = system: CAKI-1 renal
CCRF-CEM leukemia = system: CCRF-CEM leukemia
COLO 205 colon = system: COLO 205 colon
DU-145 prostate = system: DU-145 prostate
HCC-2998 colon = system: HCC-2998 colon
HCT-116 colon = system: HCT-116 colon
HCT-15 colon = system: HCT-15 colon
HOP-62 NSCLC = system: HOP-62 NSCLC
HOP-92 NSCLC = system: HOP-92 NSCLC
HS 578T breast = system: HS 578T breast
HT29 colon = system: HT29 colon
IGROV1 ovarian = system: IGROV1 ovarian
K-562 leukemia = system: K-562 leukemia
KM12 colon = system: KM12 colon
M14 melanoma = system: M14 melanoma
MALME-3M melanoma = system: MALME-3M melanoma
MCF7 breast = system: MCF7 breast
MDA-MB-231 breast = system: MDA-MB-231 breast
MDA-MB-435 = system: MDA-MB-435
MDA-N = system: MDA-N
MOLT-4 leukemia = system: MOLT-4 leukemia
NCI-H226 lung = system: NCI-H226 lung
NCI-H23 lung = system: NCI-H23 lung
NCI-H460 lung = system: NCI-H460 lung
NCI-H522 lung = system: NCI-H522 lung
NCI/ADR-RES ovarian = system: NCI/ADR-RES ovarian
OVCAR-3 ovarian = system: OVCAR-3 ovarian
OVCAR-4 ovarian = system: OVCAR-4 ovarian
OVCAR-5 ovarian = system: OVCAR-5 ovarian
OVCAR-8 ovarian = system: OVCAR-8 ovarian
PC-3 prostate = system: PC-3 prostate
RPMI-8226 leukemia = system: RPMI-8226 leukemia
RXF 393 renal = system: RXF 393 renal
SF-268 CNS = system: SF-268 CNS
SF-539 CNS = system: SF-539 CNS
SK-MEL-2 melanoma = system: SK-MEL-2 melanoma
SK-MEL-28 melanoma = system: SK-MEL-28 melanoma
SK-MEL-5 melanoma = system: SK-MEL-5 melanoma
SK-OV-3 ovarian = system: SK-OV-3 ovarian
SN12C renal = system: SN12C renal
SNB-19 CNS = system: SNB-19 CNS
SNB-75 CNS = system: SNB-75 CNS
SR leukemia = system: SR leukemia
SW-620 colon = system: SW-620 colon
T-47D breast = system: T-47D breast
TK-10 renal = system: TK-10 renal
U251 CNS = system: U251 CNS
UACC-257 melanoma = system: UACC-257 melanoma
UACC-62 melanoma = system: UACC-62 melanoma
UO-31 renal = system: UO-31 renal
EKVX NSCLC = system: EKVX NSCLC
HL-60(TB) leukemia = system: HL-60(TB) leukemia
LOX IMVI melanoma = system: LOX IMVI melanoma
SF-295 CNS = system: SF-295 CNS

`Cc1cccc(NC(=S)NNC(=O)c2cc(-c3ccccc3)nc3ccccc23)c1` gave a TGI (786-0 renal) of 85.1 µM, a TGI (A498 renal) of 47.6 µM and a TGI (A549 NSCLC) of 70.7 µM. It also gave a TGI (ACHN renal) of over 100 µM, a TGI (BT-549 breast) of over 100 µM and a TGI (CAKI-1 renal) of 72.4 µM. The TGI (CCRF-CEM leukemia) was 35.4 µM, the TGI (COLO 205 colon) was 40.1 µM and the TGI (DU-145 prostate) was over 100 µM. For the same compound, the TGI (HCC-2998 colon) was 57.3 µM, the TGI (HCT-116 colon) was 48.4 µM and the TGI (HCT-15 colon) was over 100 µM. It also gave a TGI (HOP-62 NSCLC) of 99.3 µM, a TGI (HOP-92 NSCLC) of 68.5 µM and a TGI (HS 578T breast) of over 100 µM. For the same compound, the TGI (HT29 colon) was over 100 µM, the TGI (IGROV1 ovarian) was over 100 µM and the TGI (K-562 leukemia) was over 100 µM. It also gave a TGI (KM12 colon) of over 100 µM, a TGI (M14 melanoma) of over 100 µM and a TGI (MALME-3M melanoma) of 83.8 µM. The TGI (MCF7 breast) was 57.2 µM, the TGI (MDA-MB-231 breast) was 95 µM and the TGI (MDA-MB-435) was 85.7 µM. The TGI (MDA-N) was over 100 µM, the TGI (MOLT-4 leukemia) was 84.3 µM and the TGI (NCI-H226 lung) was over 100 µM. The TGI (NCI-H23 lung) was 84.8 µM, the TGI (NCI-H460 lung) was 85.9 µM and the TGI (NCI-H522 lung) was 85.8 µM. It also gave a TGI (NCI/ADR-RES ovarian) of over 100 µM, a TGI (OVCAR-3 ovarian) of 66.5 µM and a TGI (OVCAR-4 ovarian) of over 100 µM. For the same compound, the TGI (OVCAR-5 ovarian) was over 100 µM, the TGI (OVCAR-8 ovarian) was over 100 µM and the TGI (PC-3 prostate) was 83.3 µM. It also gave a TGI (RPMI-8226 leukemia) of 83.6 µM, a TGI (RXF 393 renal) of 68.3 µM and a TGI (SF-268 CNS) of over 100 µM. The TGI (SF-539 CNS) was 58.9 µM, the TGI (SK-MEL-2 melanoma) was 45.8 µM and the TGI (SK-MEL-28 melanoma) was over 100 µM. It also gave a TGI (SK-MEL-5 melanoma) of 39 µM, a TGI (SK-OV-3 ovarian) of 59.2 µM and a TGI (SN12C renal) of over 100 µM. For the same compound, the TGI (SNB-19 CNS) was over 100 µM, the TGI (SNB-75 CNS) was over 100 µM and the TGI (SR leukemia) was 41.1 µM. It also gave a TGI (SW-620 colon) of over 100 µM, a TGI (T-47D breast) of over 100 µM and a TGI (TK-10 renal) of over 100 µM. For the same compound, the TGI (U251 CNS) was 89.9 µM, the TGI (UACC-257 melanoma) was over 100 µM and the TGI (UACC-62 melanoma) was 99.7 µM. It also gave a TGI (UO-31 renal) of 57.1 µM.
`Cc1csc(NCc2ccc(Cl)cc2)n1` was tested, and the TGI (786-0 renal) was over 100 µM, the TGI (A498 renal) was over 100 µM and the TGI (A549 NSCLC) was over 100 µM. The TGI (ACHN renal) was over 100 µM, the TGI (BT-549 breast) was over 100 µM and the TGI (CAKI-1 renal) was over 100 µM. The TGI (CCRF-CEM leukemia) was over 100 µM, the TGI (COLO 205 colon) was 63.1 µM and the TGI (DU-145 prostate) was over 100 µM. The TGI (EKVX NSCLC) was over 100 µM, the TGI (HCT-116 colon) was over 100 µM and the TGI (HCT-15 colon) was over 100 µM. The TGI (HL-60(TB) leukemia) was over 100 µM, the TGI (HOP-62 NSCLC) was over 100 µM and the TGI (HOP-92 NSCLC) was 89.9 µM. The TGI (HS 578T breast) was over 100 µM, the TGI (HT29 colon) was over 100 µM and the TGI (IGROV1 ovarian) was over 100 µM. The TGI (K-562 leukemia) was over 100 µM, the TGI (KM12 colon) was over 100 µM and the TGI (LOX IMVI melanoma) was over 100 µM. The TGI (M14 melanoma) was over 100 µM, the TGI (MALME-3M melanoma) was over 100 µM and the TGI (MCF7 breast) was over 100 µM. The TGI (MDA-MB-231 breast) was over 100 µM, the TGI (MDA-MB-435) was over 100 µM and the TGI (MDA-N) was over 100 µM. For the same compound, the TGI (MOLT-4 leukemia) was over 100 µM, the TGI (NCI-H226 lung) was over 100 µM and the TGI (NCI-H23 lung) was over 100 µM. It also gave a TGI (NCI-H522 lung) of over 100 µM, a TGI (NCI/ADR-RES ovarian) of over 100 µM and a TGI (OVCAR-3 ovarian) of over 100 µM. For the same compound, the TGI (OVCAR-4 ovarian) was over 100 µM, the TGI (OVCAR-5 ovarian) was over 100 µM and the TGI (OVCAR-8 ovarian) was over 100 µM. For the same compound, the TGI (PC-3 prostate) was over 100 µM, the TGI (RPMI-8226 leukemia) was over 100 µM and the TGI (RXF 393 renal) was 79 µM. For the same compound, the TGI (SF-268 CNS) was over 100 µM, the TGI (SF-295 CNS) was over 100 µM and the TGI (SF-539 CNS) was over 100 µM. For the same compound, the TGI (SK-MEL-2 melanoma) was over 100 µM, the TGI (SK-MEL-28 melanoma) was over 100 µM and the TGI (SK-MEL-5 melanoma) was 59.4 µM. It also gave a TGI (SK-OV-3 ovarian) of over 100 µM, a TGI (SN12C renal) of over 100 µM and a TGI (SNB-19 CNS) of over 100 µM. It also gave a TGI (SNB-75 CNS) of over 100 µM, a TGI (SR leukemia) of over 100 µM and a TGI (SW-620 colon) of over 100 µM. For the same compound, the TGI (T-47D breast) was over 100 µM, the TGI (TK-10 renal) was over 100 µM and the TGI (U251 CNS) was over 100 µM. It also gave a TGI (UACC-257 melanoma) of over 100 µM and a TGI (UO-31 renal) of over 100 µM.
